Measured values: article PMC5344036 (Molecular imaging and biology : MIB : the official …, 2014)
Like-named read-outs stand apart in the source and are kept apart here. Each block holds one compound with its values, some of them ahead of it.

Assays:
α7-nAChRs = details: read-out: equilibrium dissociation constant KD; rat; cited from earlier work
α7-nAChR [1] = details: rat hippocampus or human α7-nAChR recombinant membranes; cited from earlier work
α7-nAChR [2] = target: T1, α7-nAChR (Homo sapiens, UniProt P36544); experiment: Human PET brain imaging with [^18F]ASEM; format: in vivo
T1 sequence (P36544 23-502): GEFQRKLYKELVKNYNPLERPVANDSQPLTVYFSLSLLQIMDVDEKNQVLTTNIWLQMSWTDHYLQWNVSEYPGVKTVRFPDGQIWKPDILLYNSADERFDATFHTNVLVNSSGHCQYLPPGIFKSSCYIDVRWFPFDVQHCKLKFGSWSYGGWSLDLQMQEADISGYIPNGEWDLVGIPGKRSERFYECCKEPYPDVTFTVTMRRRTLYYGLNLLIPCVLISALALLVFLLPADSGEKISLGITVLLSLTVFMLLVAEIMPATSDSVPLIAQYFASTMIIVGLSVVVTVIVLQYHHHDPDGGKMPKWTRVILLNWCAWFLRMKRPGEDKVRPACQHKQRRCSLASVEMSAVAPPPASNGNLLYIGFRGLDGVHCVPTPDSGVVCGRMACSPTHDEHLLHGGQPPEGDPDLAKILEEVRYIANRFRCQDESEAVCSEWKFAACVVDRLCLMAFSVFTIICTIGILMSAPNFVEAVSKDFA

[3] = [^18F]ASEM metabolite analysis in human plasma; format: in vivo; details: for parent [^18F]ASEM metabolized: human plasma
α7-nAChR [4] = target: T1, α7-nAChR; details: single human PET experiment; cited from earlier work
α7-nAChR [5] = target: α7-nAChR (Mus musculus, UniProt P49582); format: in vivo, CD1 mice; details: 90 min post-tracer
α7-nAChR (Mus musculus, UniProt P49582), sequence (P49582 23-502): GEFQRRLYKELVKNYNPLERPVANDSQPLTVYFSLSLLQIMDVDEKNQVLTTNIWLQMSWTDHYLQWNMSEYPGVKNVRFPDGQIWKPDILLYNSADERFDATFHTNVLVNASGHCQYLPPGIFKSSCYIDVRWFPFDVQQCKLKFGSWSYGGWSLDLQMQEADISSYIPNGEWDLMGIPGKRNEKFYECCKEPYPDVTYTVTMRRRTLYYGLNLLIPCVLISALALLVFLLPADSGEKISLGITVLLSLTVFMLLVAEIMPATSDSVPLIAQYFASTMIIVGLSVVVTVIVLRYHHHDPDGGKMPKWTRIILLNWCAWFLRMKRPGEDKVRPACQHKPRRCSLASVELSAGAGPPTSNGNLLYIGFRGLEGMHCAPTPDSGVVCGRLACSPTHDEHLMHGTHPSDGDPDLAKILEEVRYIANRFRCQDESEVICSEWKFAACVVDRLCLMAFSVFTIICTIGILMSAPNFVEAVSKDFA

α7-nAChR [6] = details: mouse brain, prior studies of the authors; cited from earlier work
α7-nAChR [7] = details: baboon brain, prior studies of the authors; cited from earlier work
α7-nAChR [8] = details: monkey PET, injection of SSR180711; cited from earlier work

Structure (SMILES): Cc1ccc(OC(=O)N2CCN3CCC2CC3)cc1 [[^3H]CHIBA-1001]
Kd (α7-nAChRs): 193 nM
Kd (α7-nAChR [1]): 120 to 180 nM

Structure (SMILES): O=S1(=O)c2cc(N3CCN4CCC3CC4)ccc2-c2cccc([18F])c21 [[^18F]ASEM, 3-(1,4-diazabicyclo[3.2.2]nonan-4-yl)-6-[^18F]fluorodibenzo[b,d]thiophene 5,5-dioxide]
distribution volume VT, lower-binding regions (α7-nAChR [2]; entorhinal cortex, cerebellum, caudate, corpus callosum, PRGA): < 15 ml/ml
time of peak brain uptake post-injection (α7-nAChR [2]; human brain, after IV bolus injection): 15 min
test-retest variability (TRV) of VT (α7-nAChR [2]; medium and high VT regions, two subjects, two scans separated by a few days): 10.8±5.1%
time of plasma TAC peak ([3]; human arterial plasma): ≤ 1 min
parent [^18F]ASEM metabolized ([3]; 30 min post-injection): 52.6±12.9%
parent [^18F]ASEM metabolized ([3]; 90 min post-injection): 83.5±9.7%

Structure (SMILES): [11CH3]c1ccc(OC(=O)N2CCN3CCC2CC3)cc1 [[^11C]CHIBA-1001]
target-to-non-target ratios in the brain regions (α7-nAChR [4]): < 1.3

blockade of [^18F]ASEM binding (α7-nAChR [5]; 3 mg/kg IP, hippocampus, p<0.05): 28%
blockade of [^18F]ASEM binding (α7-nAChR [5]; 10 mg/kg IP, hippocampus, cortex, subcolliculus, p<0.01): 50–70%
blockade of [^18F]ASEM binding (α7-nAChR [5]; 0.1, 0.3 and 1 mg/kg IP): did not show significant blockade
Structure (SMILES): COc1ccc(/C=C2\CCCN=C2c2cccnc2)c(OC)c1 [DMXB-A, Dimethoxybenzylidene anabaseine]

Structure (SMILES): O=C(Oc1ccc(Br)cc1)N1CCN2CCC1CC2 [SSR180711]
blockade of [^18F]ASEM binding (α7-nAChR [6]): successfully blocked
blockade of [^18F]ASEM binding (α7-nAChR [7]): successfully blocked
reduction of [^11C]CHIBA-1001 radioactivity in the high uptake regions (α7-nAChR [8]): 25–30%
